# Test results taken from patent US5747247A, “Spectroscopic helicase assay” (The Regents of The University of California, priority 1994, dated 1998).
# pKi: −log10 of the molar value.
# How the values were obtained:
# [1] = test system: E. coli helicase I, helicase II (uvrD), and rep proteins; settings: George et al., cited from earlier work; for pKi: read-out: Ki for ATPase and helicase activities
# [2] = test system: helicase; settings: other studies (refs 46-48); cited from earlier work
# [3] = test system: recBCD enzyme; test: Dye displacement fluorometric helicase assay (DNA unwinding followed by dye fluorescence); assay type: biochemical, E. coli; settings: for Apparent rate of unwinding at which the dye titration levels off: 0.5 nM total recBCD, 2 uM SSB, plateau at ~150 nM for H33258 and TO and 375 nM for DAPI; for Apparent rate of unwinding at which the dye titration levels off / Vmax, observed rate of unwinding at saturating enzyme: 20° C.; for Increase of Vmax in absence of SSB protein relative to its presence: SSB protein omitted vs present; for Vmax, observed rate of unwinding: SSB protein omitted; for Vmax, observed rate of unwinding / Vmax, observed rate of unwinding at saturating enzyme: 250 nM DAPI, 100 nM H33258, 300 nM TO; for Vmax, observed rate of unwinding at saturating enzyme / Apparent energy of activation (Ea) of unwinding: with SSB protein; for Vmax, observed rate of unwinding at saturating enzyme: SSB assay gives 250±25; for Apparent energy of activation (Ea) of unwinding: Arrhenius plots from 20°, 25°, 32°, 37° C., SSB assay 9.7
# Procedure: (§1) Fluorometric helicase assay: The standard reaction buffer consisted of 25 mM Tris-acetate (pH 7.5), 1 mM Mg(OAc)2, and 1 mM DTT. When SSB protein was included, it was present at a 3-fold molar excess, assuming a site size of 15 nucleotides/monomer under stoichiometric conditions. This corresponds to a protein concentration which is 20% of the DNA (nucleotide) concentration. The DNA substrate was BamHI-digested pBR322 DNA, at a concentration of 10 uM nucleotide (2.1 nM ends).
# (§2) The reaction (350 ul total volume) contained standard buffer, linear pBR322 DNA, and the indicated concentration of recBCD enzyme. […] The fluorescence signal due to these components was zeroed out. The fluorophore (either SSB protein or dye) was then added, and the reaction was allowed to equilibrate to the indicated temperature. Unwinding was initiated by the addition of ATP to 3 mM final concentration. […] For SSB protein fluorescence measurements, the value for 100% unwinding was calculated as described previously (28, 41). For dye fluorescence experiments, the value for complete unwinding was obtained by subtracting the fluorescence in the presence of an equimolar amount of ssDNA (i.e., heat-denatured pBR322) (FssDNA) from the fluorescence at the start of the reaction (FdsDNA). The difference in these values (FdsDNA -FssDNA) was taken to be the maximum fluorescence change possible if all of the DNA molecules were fully unwound (Fexp). The observed fluorescence change (Fobs) was divided by this differ ence to obtain the extent of unwinding. Initial rates were then calculated as described previously (28).
# (§3) Fluorescence measurements were carried out on a Shimadzu RF5000U spectrofluorophotometer. When the intrinsic fluorescence of SSB protein was measured, the excitation and emission wavelengths were set at 290 and 340 nm, respectively. The excitation and emission wavelengths for the various dyes were determined experimentally in the presence of dsDNA. For AO, these values were 487 and 510 nm; for DAPI, 345 and 467 nm; for EB, 546 and 590 nm; for EHD, 552 and 596 nm; for H33258, 344 and 487 nm; and for TO, 504 and 528 nm. When SSB protein fluorescence was monitored, the band widths were 1.5 and 10 nm for the excitation and emission slits, respectively; for all of the dye fluorescence experiments, these values were 5 and 10 nm, respectively.
# To determine whether the presence of dyes affected the observed rate of unwinding, the reaction (including SSB protein) was performed at several concentrations of DAPI, H33258, and TO. The reactions were performed at 20° C. in standard buffer with 10 uM nucleotide (2.1 nM ends) linear pBR322 DNA, 2 uM SSB protein, 0.5 nM total (0.17 nM functional) recBCD enzyme, and the indicated concentration of dye. Unwinding was initiated by adding ATP to a final concentration of 3 mM. […] For each dye (DAPI (.circle-solid.), H33258 (o), or TO (.tangle-solidup.), the initial rate of unwinding was determined as described in the Experimental Procedures and is plotted in panel B as a function of dye concentration. Due to the lag behavior illustrated in panel A, the data at concentrations ≤100 nM are considered unreliable, as indicated by shading this portion of the graph.
# In FIG. 4A, raw data from an experiment in which recBCD enzyme concentration was varied at a given concentration of TO are shown; SSB protein was included to allow comparison to previous results. From results such as these, using either DAPI, H33258, or TO, the data in FIG. 4B were generated. Unwinding was performed as in FIG. 3, except that the concentration of recBCD enzyme was varied, and a constant concentration of fluorophore (250 nM for DAPI; 100 nM for H33258; and 300 nM for TO) was used. In panel A, a portion of the raw data obtained with TO are shown. The observed rates of unwinding derived from such experiments are shown in panel B. DAPI, .circle-solid.; H33258, o; TO, .tangle-solidup.. […]
# [4] = target: T1, recBCD enzyme (Escherichia coli, UniProt P04993+P07648+P08394); test: SSB protein fluorescence assay of DNA unwinding in presence of fluorescent dyes; assay type: biochemical, E. coli; settings: for Rate of DNA unwinding: 20° C., 2 uM SSB protein, 0.5 nM total recBCD enzyme, none = 40.7 ± 4.1
# T1 construct: made in house
# T1 sequence (P07648 whole entry): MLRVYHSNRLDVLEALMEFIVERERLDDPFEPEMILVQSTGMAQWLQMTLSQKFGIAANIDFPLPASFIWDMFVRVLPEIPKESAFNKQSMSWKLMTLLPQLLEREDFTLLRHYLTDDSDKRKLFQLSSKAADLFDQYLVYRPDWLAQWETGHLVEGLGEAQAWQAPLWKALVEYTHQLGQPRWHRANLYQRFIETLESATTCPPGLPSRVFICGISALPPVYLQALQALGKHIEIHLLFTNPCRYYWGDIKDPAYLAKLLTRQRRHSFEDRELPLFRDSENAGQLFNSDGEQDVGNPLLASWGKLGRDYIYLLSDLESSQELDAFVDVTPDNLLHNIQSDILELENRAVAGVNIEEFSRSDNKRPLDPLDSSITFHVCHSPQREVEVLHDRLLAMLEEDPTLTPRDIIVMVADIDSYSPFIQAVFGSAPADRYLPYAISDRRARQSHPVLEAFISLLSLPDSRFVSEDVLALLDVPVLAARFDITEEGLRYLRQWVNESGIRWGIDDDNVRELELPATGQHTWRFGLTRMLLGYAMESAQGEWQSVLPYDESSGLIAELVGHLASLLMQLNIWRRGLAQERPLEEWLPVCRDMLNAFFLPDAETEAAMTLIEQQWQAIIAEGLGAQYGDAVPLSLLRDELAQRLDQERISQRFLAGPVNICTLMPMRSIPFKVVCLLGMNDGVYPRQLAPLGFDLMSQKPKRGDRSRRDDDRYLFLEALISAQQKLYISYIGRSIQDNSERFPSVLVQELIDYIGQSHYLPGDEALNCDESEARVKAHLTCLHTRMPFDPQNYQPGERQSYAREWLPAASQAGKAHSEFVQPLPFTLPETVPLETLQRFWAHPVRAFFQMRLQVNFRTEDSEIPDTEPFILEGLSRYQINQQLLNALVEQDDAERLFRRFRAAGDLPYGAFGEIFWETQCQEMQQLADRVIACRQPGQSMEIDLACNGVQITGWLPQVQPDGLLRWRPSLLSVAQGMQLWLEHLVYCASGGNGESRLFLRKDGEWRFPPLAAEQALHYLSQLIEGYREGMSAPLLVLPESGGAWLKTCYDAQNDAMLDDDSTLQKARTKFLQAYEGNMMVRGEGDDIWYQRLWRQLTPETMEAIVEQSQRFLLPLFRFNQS
# T1 sequence (P04993 whole entry): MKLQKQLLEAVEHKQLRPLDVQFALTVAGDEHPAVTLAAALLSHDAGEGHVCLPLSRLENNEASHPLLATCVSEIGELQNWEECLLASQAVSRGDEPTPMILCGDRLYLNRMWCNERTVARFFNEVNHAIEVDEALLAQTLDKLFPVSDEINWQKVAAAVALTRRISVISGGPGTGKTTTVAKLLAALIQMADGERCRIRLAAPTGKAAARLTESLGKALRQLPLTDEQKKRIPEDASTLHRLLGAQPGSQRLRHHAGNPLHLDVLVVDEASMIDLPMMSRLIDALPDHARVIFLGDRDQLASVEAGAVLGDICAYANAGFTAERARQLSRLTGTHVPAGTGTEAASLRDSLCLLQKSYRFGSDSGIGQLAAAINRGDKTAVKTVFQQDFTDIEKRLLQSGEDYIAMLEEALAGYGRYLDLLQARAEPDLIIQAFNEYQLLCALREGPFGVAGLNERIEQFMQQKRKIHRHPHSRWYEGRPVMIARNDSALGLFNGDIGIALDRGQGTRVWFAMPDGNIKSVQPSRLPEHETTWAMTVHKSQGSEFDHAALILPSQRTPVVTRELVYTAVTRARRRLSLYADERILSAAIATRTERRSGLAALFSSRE
# T1 sequence (P08394 whole entry): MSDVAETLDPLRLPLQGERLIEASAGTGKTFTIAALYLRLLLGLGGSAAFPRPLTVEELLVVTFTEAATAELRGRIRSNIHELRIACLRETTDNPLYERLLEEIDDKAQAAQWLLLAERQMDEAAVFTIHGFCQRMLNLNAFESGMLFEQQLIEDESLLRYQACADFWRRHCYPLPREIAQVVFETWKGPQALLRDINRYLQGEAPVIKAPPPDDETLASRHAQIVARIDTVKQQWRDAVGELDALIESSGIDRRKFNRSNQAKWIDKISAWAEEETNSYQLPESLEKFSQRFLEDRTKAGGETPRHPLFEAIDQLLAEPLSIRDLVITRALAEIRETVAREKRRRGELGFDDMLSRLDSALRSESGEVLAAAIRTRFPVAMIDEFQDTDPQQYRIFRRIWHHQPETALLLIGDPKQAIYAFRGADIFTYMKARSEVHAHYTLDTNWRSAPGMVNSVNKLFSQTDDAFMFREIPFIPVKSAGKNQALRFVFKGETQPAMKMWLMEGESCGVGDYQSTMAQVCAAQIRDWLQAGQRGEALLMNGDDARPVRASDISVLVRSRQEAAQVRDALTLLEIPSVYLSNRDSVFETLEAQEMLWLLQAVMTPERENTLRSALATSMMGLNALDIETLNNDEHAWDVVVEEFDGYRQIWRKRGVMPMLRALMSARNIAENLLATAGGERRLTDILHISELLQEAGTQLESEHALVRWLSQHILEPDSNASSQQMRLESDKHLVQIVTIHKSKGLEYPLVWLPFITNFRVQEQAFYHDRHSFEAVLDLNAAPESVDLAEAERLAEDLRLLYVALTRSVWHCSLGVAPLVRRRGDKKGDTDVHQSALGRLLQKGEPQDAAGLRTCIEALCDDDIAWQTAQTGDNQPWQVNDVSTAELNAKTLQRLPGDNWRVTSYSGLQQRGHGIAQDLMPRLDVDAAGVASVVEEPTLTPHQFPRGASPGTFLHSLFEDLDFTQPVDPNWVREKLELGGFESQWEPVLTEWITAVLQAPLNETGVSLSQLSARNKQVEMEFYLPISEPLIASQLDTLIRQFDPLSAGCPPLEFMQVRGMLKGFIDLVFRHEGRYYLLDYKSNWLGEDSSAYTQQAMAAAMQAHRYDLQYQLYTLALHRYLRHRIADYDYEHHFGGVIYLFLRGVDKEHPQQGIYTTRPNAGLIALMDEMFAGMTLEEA
# Procedure: as §1, §2, §3
# The unwinding reaction was performed at 20° C. in buffer containing 25 mM Tris-acetate (pH 7.5), 1 mM Mg(OAc)2, 3 mM ATP, 1 mM DTT, 10 uM nucleotide BamHI-digested pBR322 DNA, 2 uM SSB protein, 0.5 nM total (0.17 nM functional) recBCD enzyme, and the indicated concentrations of dye. SSB protein fluorescence was monitored.
Structure (SMILES),pKi [1],Apparent rate of unwinding at which the dye titration levels off [3],Increase of Vmax in absence of SSB protein relative to its presence [3],"Vmax, observed rate of unwinding [3] [nM bp/s]","Vmax, observed rate of unwinding at saturating enzyme [3] [nM bp/s]",Apparent energy of activation (Ea) of unwinding [3] [kcal/mol],Rate of DNA unwinding ([4]; 100 nM dye) [nm bp/s],Rate of DNA unwinding ([4]; 250 nM dye) [nm bp/s],further results
"CN(C)c1ccc2cc3ccc(N(C)C)cc3nc2c1 [AO, acridine orange]",5.00 to 6.00,–,–,–,–,–,–,–,–
N=C(N)c1ccc(-c2cc3ccc(C(=N)N)cc3[nH]2)cc1,5.00 to 6.00,–,–,–,–,–,–,–,–
COc1c(O)c2c(c3cc(C(=O)N4CCc5c4c(O)c(OC)c4[nH]c(C(=O)N6CC7CC78C6=CC(=O)c6[nH]cc(C)c68)cc54)[nH]c13)CCN2C(N)=O (stereo not shown) [CC-1065],–,–,–,–,–,–,–,–,Inhibition of helicase activity [2]: inhibition of helicase activity
"CN1CCN(c2ccc3[nH]c(-c4ccc5[nH]c(-c6ccc(O)cc6)nc5c4)nc3c2)CC1 [H33258, Hoechst 33258]",5.00 to 6.00,20-25 nM bp/s,25-50%,272±30,221±25,9.9,36.1 ± 4.5,35.5 ± 1.9,"Rate of unwinding at optimal dye concentration compared with SSB protein fluorescence assay ([3]; 400 nm DAPI, 300 nm H33258): within experimental error, equal to those obtained using the SSB protein fluorescence assay; Effect on observed rate of unwinding ([4]; dye at 100 or 250 nM, low enzyme concentration): does not affect the observed rate of unwinding"
O=C1c2c(O)ccc(O)c2C(=O)c2c(NCCNCCO)ccc(NCCNCCO)c21 [mitoxantrone],–,–,–,–,–,–,–,–,Inhibition of helicases ([1]; dependent upon ligand and enzyme): potent but differential inhibition
"CN1C(=Cc2cc[n+](C)c3ccccc23)Sc2ccccc21 [TO, thiazole orange]",–,20-25 nM bp/s,25-50%,330±25,211±15,9.7,35.6 ± 1.3,31.9 ± 0.7,inhibition at 0.25 µM ([4]; read-out: Decrease of observed rate of unwinding): < 20%
